The values below come from PMC3926938 (Nature structural & molecular biology, 2012).

Square brackets hold non-standard residues; d marks the D form. Ends that are not written are not given here. Lys(Me3) = C[N+](C)(C)CCCC[C@H](N)C(=O)O

The target of assay [1] is human PHF19-Tudor (residues 37–95) (human) (UniProt Q5T6S3). Nature of the assay: NMR titration.
Another assay has as its target human PHF19-Tudor (Homo sapiens, UniProt Q5T6S3). Nature of the assay: NMR chemical shift titration of Phf19-Tudor with histone H3 peptides. Type of assay: binding. The following applies: for Kd increased by a factor (alanine mutant peptide vs wild-type peptide): NMR, point mutations in histone H3 amino acids 37–41.
Assay [2] deals with human PHF19-Tudor (residues 37–95) (human, UniProt Q5T6S3 37-95). The assay is described as follows: NMR titration.

By Kd is commonly meant the constant that tells how readily two partners part at equilibrium. Turning to H3K36me2-containing peptide (NMR), the Kd in assay [1] turned out to be 295 µM.

For 34-GV-Kme3-APHRY-41 [H3 K37A], on human PHF19-Tudor, the “Kd increased by a factor (alanine mutant peptide vs wild-type peptide)” value (“Kd increased by a factor” for short) was found to be 2.1.

Consider 34GV-Kme3-KPHAY-41 [H3 R10A], for which, at human PHF19-Tudor, the “Kd increased by a factor” value is recorded as “did not increase”.

With 31-ATGGV-Kme3-K-37 [H3_31–36], at human PHF19-Tudor (NMR titration), the “binding to Phf19-Tudor (in words)” value is “unable to bind”.

As for 34-GV-Kme3-KPHRA-41 [H3 Y41A], the “Kd increased by a factor” value on human PHF19-Tudor is given as 1.6.

Take “11-mer H3K36me3 peptide (31-ATGGVKme3KPHRY-41)”: in assay [1], the Kd was 29 µM.

On to GV[Lys(Me3)]KPHRY [short H3K36me3 peptide (34-GV-Kme3-KPHRY-41; called the 7-mer histone H3_(35–41) in the results)], for which the Kd in assay [2] was 44 µM.
